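Growth conditions: 96-well plates. Treatment: test compound, 48 hours, 5 concentrations. Analysis: linear interpolation between bracketing concentrations; unreached endpoints set to highest concentration. GI50 is the concentration that inhibits growth by half.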 Calls of active or inactive are those of the source. No stated cut-off is given here; in the data, active = GI50 up to about 1.1 µM and inactive = higher.
Columns and labels:
Assay in all cases: DTP human tumour cell line panel, 48 h
OVCAR-5 = test system: OVCAR-5
CAKI-1 = test system: CAKI-1
SF-295 = test system: SF-295
HCC 2998 = test system: HCC 2998
U-251 = test system: U-251
Hs-578T = test system: Hs-578T
MDA-MB-435 = test system: MDA-MB-435
SN12C = test system: SN12C
MOLT-4 = test system: MOLT-4
SK-MEL-2 = test system: SK-MEL-2
A549 = test system: A549
PC-3 = test system: PC-3
RPMI-8226 = test system: RPMI-8226
HOP-62 = test system: HOP-62
MDA-MB-231 = test system: MDA-MB-231
OVCAR-3 = test system: OVCAR-3
OVCAR-4 = test system: OVCAR-4
OVCAR-8 = test system: OVCAR-8
SNB-75 = test system: SNB-75
NCI-H522 = test system: NCI-H522

Row | SMILES | GI50 (OVCAR-5) | GI50 (CAKI-1) | GI50 (SF-295) | GI50 (HCC 2998) | GI50 (U-251) | GI50 (Hs-578T) | GI50 (MDA-MB-435) | GI50 (SN12C) | GI50 (MOLT-4) | GI50 (SK-MEL-2) | GI50 (A549) | GI50 (PC-3) | GI50 (RPMI-8226) | GI50 (HOP-62) | GI50 (MDA-MB-231) | GI50 (OVCAR-3) | GI50 (OVCAR-4) | GI50 (OVCAR-8) | GI50 (SNB-75) | GI50 (NCI-H522)
1 | CC1S/C(=N\N=C2/C(=O)Nc3ccc(Br)cc32)N(C2CCCCC2)C1=O (stereo unspecified) | 14.4 µM (inactive) | 1.8 µM (inactive) | 3.89 µM (inactive) | 4.08 µM (inactive) | 2.54 µM (inactive) | 3.22 µM (inactive) | 5.37 µM (inactive) | 2.93 µM (inactive) | 5.37 µM (inactive) | 1.45 µM (inactive) | 3.41 µM (inactive) | 5.36 µM (inactive) | 16.8 µM (inactive) | 2.09 µM (inactive) | 2.18 µM (inactive) | 2.75 µM (inactive) | 1.89 µM (inactive) |  |  | 
2 | Clc1ccc(/C=c2\nc(-c3ccccc3)n3c2nc2ccccc23)cc1 | > 100 µM (inactive) | 51.4 µM (inactive) | 25.5 µM (inactive) |  | 49.1 µM (inactive) | 49.3 µM (inactive) | > 100 µM (inactive) | > 100 µM (inactive) | > 100 µM (inactive) | > 100 µM (inactive) | > 100 µM (inactive) | 19.1 µM (inactive) | > 100 µM (inactive) | 38.4 µM (inactive) | 61.5 µM (inactive) | 51.9 µM (inactive) | 56.4 µM (inactive) | 32.7 µM (inactive) |  | 
3 | CC1=CC(c2ccccc2)n2c(nc3cc4ccccc4cc32)N1 (stereo unspecified) | > 100 µM (inactive) | > 100 µM (inactive) | > 100 µM (inactive) | > 100 µM (inactive) | > 100 µM (inactive) | > 100 µM (inactive) | > 100 µM (inactive) |  | > 100 µM (inactive) | > 100 µM (inactive) | > 100 µM (inactive) | > 100 µM (inactive) | > 100 µM (inactive) |  | > 100 µM (inactive) | > 100 µM (inactive) | > 100 µM (inactive) | > 100 µM (inactive) | > 100 µM (inactive) | 
4 | COC(=O)c1sc(=O)sc1SCc1cccc(CSc2sc(=O)sc2C(=O)OC)c1 | > 100 µM (inactive) | 28.4 µM (inactive) | 26.2 µM (inactive) | 53.7 µM (inactive) | 17.4 µM (inactive) | 57.1 µM (inactive) | 60.1 µM (inactive) | 39.7 µM (inactive) | 47.6 µM (inactive) | 47.9 µM (inactive) | 51.4 µM (inactive) | 29.2 µM (inactive) |  | 16 µM (inactive) | 24.9 µM (inactive) | 23.9 µM (inactive) | 15.9 µM (inactive) | 37.2 µM (inactive) |  | 29 µM (inactive)
5 | CN1C(=O)N/C(=C\c2ccc(S(=O)(=O)N/N=C/c3ccccc3)cc2)C1=O | > 100 µM (inactive) | 21.2 µM (inactive) | 21.9 µM (inactive) | 32.1 µM (inactive) | 40.6 µM (inactive) | 35.5 µM (inactive) | 37 µM (inactive) | 66.2 µM (inactive) | 14.5 µM (inactive) | 15 µM (inactive) | 28.5 µM (inactive) | 22.1 µM (inactive) | 18.6 µM (inactive) | 64.9 µM (inactive) | 11 µM (inactive) | 30.9 µM (inactive) | 18.9 µM (inactive) | 28.5 µM (inactive) | 48.3 µM (inactive) | 
6 | O=C(c1ccco1)N(C(=S)OCc1ccccn1)c1ccccc1 | > 100 µM (inactive) | > 100 µM (inactive) |  |  | > 100 µM (inactive) | > 100 µM (inactive) | > 100 µM (inactive) | > 100 µM (inactive) | > 100 µM (inactive) | > 100 µM (inactive) |  | 59.8 µM (inactive) | 49.3 µM (inactive) | 16 µM (inactive) | > 100 µM (inactive) | > 100 µM (inactive) |  | > 100 µM (inactive) |  | 
7 | CC(C)=CC(=O)c1[nH]c2ccccc2c1CC(=O)NCCc1cncn1C | > 100 µM (inactive) | > 100 µM (inactive) | > 100 µM (inactive) | 34.6 µM (inactive) | 74.5 µM (inactive) | 99.1 µM (inactive) | 47 µM (inactive) | 77.1 µM (inactive) | > 100 µM (inactive) | > 100 µM (inactive) | 68.4 µM (inactive) | 50.2 µM (inactive) |  |  | 84.3 µM (inactive) | 58.1 µM (inactive) | > 100 µM (inactive) | 62.4 µM (inactive) | 52.4 µM (inactive) | 21.8 µM (inactive)
8 | CS/C(=N\Nc1cnc2ccccc2n1)NS(=O)(=O)c1cc(C)c(Cl)cc1Cl | > 100 µM (inactive) | 53.5 µM (inactive) | > 100 µM (inactive) | > 100 µM (inactive) | > 100 µM (inactive) | > 100 µM (inactive) | > 100 µM (inactive) | > 100 µM (inactive) | > 100 µM (inactive) |  | > 100 µM (inactive) | > 100 µM (inactive) |  | > 100 µM (inactive) | 44.2 µM (inactive) | 59.6 µM (inactive) | > 100 µM (inactive) | > 100 µM (inactive) | 43.2 µM (inactive) | > 100 µM (inactive)
9 | O=P1(C(O)c2ccccc2)N(Cc2ccccc2)[C@@H]2CCCC[C@H]2N1Cc1ccccc1 (stereo partly specified) | 24.8 µM (inactive) | 64.4 µM (inactive) | 23.6 µM (inactive) | 20 µM (inactive) | 31.3 µM (inactive) | 20 µM (inactive) | 23.2 µM (inactive) | 20.9 µM (inactive) | 19.6 µM (inactive) | 27 µM (inactive) | 28.8 µM (inactive) | 24.5 µM (inactive) |  | 40.8 µM (inactive) | 21.3 µM (inactive) | 31.2 µM (inactive) | 12.3 µM (inactive) | 31 µM (inactive) | 18.4 µM (inactive) | 20.7 µM (inactive)
10 | OCC(O)COCn1nncc1Cn1ncc2c(SCc3ccccc3)ncnc21 (stereo unspecified) | > 100 µM (inactive) | > 100 µM (inactive) | > 100 µM (inactive) | > 100 µM (inactive) | > 100 µM (inactive) | 0.203 µM (active) | > 100 µM (inactive) | > 100 µM (inactive) |  | > 100 µM (inactive) | > 100 µM (inactive) | > 100 µM (inactive) |  | > 100 µM (inactive) | > 100 µM (inactive) | > 100 µM (inactive) | > 100 µM (inactive) | > 100 µM (inactive) |  | 8.89 µM (inactive)
11 | Cc1cc2c(cc1Cl)SC(c1ccccc1O)NS2(=O)=O (stereo unspecified) | 40.1 µM (inactive) | 50.6 µM (inactive) | > 100 µM (inactive) | 31 µM (inactive) | 72.9 µM (inactive) | 38.5 µM (inactive) | 45.7 µM (inactive) | 41 µM (inactive) | 12.5 µM (inactive) | 87.3 µM (inactive) | > 100 µM (inactive) | 68.5 µM (inactive) |  | > 100 µM (inactive) | 32.4 µM (inactive) | 21.7 µM (inactive) | 63.7 µM (inactive) | > 100 µM (inactive) | > 100 µM (inactive) | 48.9 µM (inactive)
12 | O=C(O)c1cc(NC2=C(Cl)C(=O)c3c(O)ccc(O)c3C2=O)ccc1O | > 10 µM (inactive) | > 10 µM (inactive) | > 10 µM (inactive) | > 10 µM (inactive) | > 10 µM (inactive) | > 10 µM (inactive) | > 10 µM (inactive) | > 10 µM (inactive) | > 10 µM (inactive) |  | > 10 µM (inactive) | > 10 µM (inactive) |  | > 10 µM (inactive) | > 10 µM (inactive) | > 10 µM (inactive) | > 10 µM (inactive) | > 10 µM (inactive) | > 10 µM (inactive) | 
13 | O=C(NNc1cn[nH]c(=O)n1)c1cccc2nc3ccccc3nc12 | > 100 µM (inactive) | 46.6 µM (inactive) | 30.2 µM (inactive) | 25.1 µM (inactive) | 27.9 µM (inactive) | 63.2 µM (inactive) | > 100 µM (inactive) | 60.1 µM (inactive) | 11 µM (inactive) | 34.9 µM (inactive) | > 100 µM (inactive) | > 100 µM (inactive) | > 100 µM (inactive) |  | 26.5 µM (inactive) | 68.7 µM (inactive) | 68.2 µM (inactive) | 39.3 µM (inactive) |  | 
14 | COc1ccc2nc(N/N=C/c3sccc3C)cc(C)c2c1 | 23.2 µM (inactive) | > 100 µM (inactive) | 7.23 µM (inactive) | 17.5 µM (inactive) | 15.4 µM (inactive) | 18.6 µM (inactive) | 14.1 µM (inactive) | 19.4 µM (inactive) | 18.7 µM (inactive) | 21.6 µM (inactive) | 20.5 µM (inactive) | 17.1 µM (inactive) | 9.38 µM (inactive) | 16.4 µM (inactive) | 0.406 µM (active) | 18.8 µM (inactive) | 21.4 µM (inactive) | 37.8 µM (inactive) | 15 µM (inactive) | 
15 | ClC1(Cl)C(c2ccccc2)C1c1ccccc1 (stereo unspecified) | 43.6 µM (inactive) | 30 µM (inactive) | 17.8 µM (inactive) | 11.1 µM (inactive) | 41.3 µM (inactive) | 20.7 µM (inactive) | 7.35 µM (inactive) | 39.4 µM (inactive) | 26.7 µM (inactive) | 13.8 µM (inactive) | 23 µM (inactive) | 62.2 µM (inactive) | 24.4 µM (inactive) | 23.2 µM (inactive) | 54.2 µM (inactive) | 21.1 µM (inactive) | 44.6 µM (inactive) | 21.2 µM (inactive) | 46 µM (inactive) | 
16 | CCCCCCCCCCCCCCCCC(C(=O)O)C(O)(CC(=O)O)C(=O)O (stereo unspecified) | 17.9 µM (inactive) | 21.4 µM (inactive) | 17.7 µM (inactive) |  | 16.7 µM (inactive) | 24.1 µM (inactive) | 34.8 µM (inactive) | 21.7 µM (inactive) | 25.5 µM (inactive) | 18.9 µM (inactive) |  | 19.5 µM (inactive) | 26.7 µM (inactive) | 17.2 µM (inactive) | 27.5 µM (inactive) | 18.5 µM (inactive) |  | 39.1 µM (inactive) | 20 µM (inactive) | 
